Biological target: T1, human RORγ hybrids of both isoforms 1 and 2 (RORγt) (Homo sapiens, UniProt P51449)
T1 sequence (P51449 259-518): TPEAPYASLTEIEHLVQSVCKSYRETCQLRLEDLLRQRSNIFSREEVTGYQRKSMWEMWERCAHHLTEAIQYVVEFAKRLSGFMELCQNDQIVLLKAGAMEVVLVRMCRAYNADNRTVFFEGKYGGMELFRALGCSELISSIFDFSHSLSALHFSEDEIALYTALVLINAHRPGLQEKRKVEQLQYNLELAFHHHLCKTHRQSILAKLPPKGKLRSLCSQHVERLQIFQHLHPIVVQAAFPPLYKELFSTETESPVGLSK
Experiment: Human RAR-related Orphan Receptor Gamma Reporter Assay System (Indigo Biosciences)
Type: cell-based
Details: not given
Protocol: The activity of the 28 selected molecules was determined at 5 μM concentration using the Human RAR-related Orphan Receptor Gamma Reporter Assay System in a 96-well format (Indigo Biosciences, State College, PA, USA). The assay utilizes human reporter cells designed to express high levels of human RORγ hybrids of both isoforms 1 and 2 and is capable of quantifying inverse agonism and agonism. […] Concentrations of the tested molecules varied from 10 µM to 8 nM, using 1/3-fold decrements within the range of 6 µM to 8 nM. Otherwise, the kit protocol was followed, and the analysis was done similarly as in a prior study.
`COc1cc(C2C(C#N)=C(N)N(Nc3ccccc3)C3=C2C(=O)CC(C)(C)C3)ccc1OCc1cccc(F)c1` (stereo not shown) [Compound 25] showed an IC50 of 2400 nM. Work on `COc1cc(C2C(C#N)=C(N)N(Nc3ccccc3)C3=C2C(=O)CC(C)(C)C3)ccc1OCc1ccccc1` (stereo not shown) [Compound 26] yielded an IC50 of 3200 nM.

Same assay, conditions: RORγ reporter assay, concentrations 10 µM to 8 nM; read-out: IC50
Work on `Clc1ccccc1COc1cccc(/C=N/Nc2nc(N3CCOCC3)nc(N3CCOCC3)n2)c1` [Compound 9] yielded an IC50 of 1700 nM. Work on `COc1ccc(-c2cc(C(F)(F)F)n3ncc(C(=O)N4CCN(C(c5ccccc5)c5ccccc5)CC4)c3n2)cc1` [Compound 10] yielded an IC50 of 9700 nM. With `COc1cc(C2C(C(=O)OC3CCCCC3)=C(C)NC3=C2C(=O)CC(c2ccc(OC)c(OC)c2)C3)ccc1O` (stereo not shown) [Compound 13] the IC50 was 2600 nM. For `COc1ccc(C2CC(=O)C3=C(C2)NC(C)=C(C(=O)OC2CCCCC2)C3c2cccc(O)c2)cc1OC` (stereo not shown) [Compound 14], the IC50 was 2300 nM. Work on `O=C(O)c1ccc(CN2C(=O)/C(=C/c3cn(Cc4ccc([N+](=O)[O-])cc4)c4ccccc34)S/C2=N/c2ccccc2)cc1` [Compound 15] yielded an IC50 of 7300 nM. Work on `COc1ccc(-c2nc3ccccc3c(C(=O)Nc3ccc(S(=O)(=O)Nc4cc(C)on4)cc3)c2C)cc1` [Compound 19] yielded an IC50 of 1100 nM. With `COc1ccc(Cn2c(-c3ccc(S(=O)(=O)N4CCOCC4)cc3)cs/c2=N\c2ccccc2OC)cc1` [Compound 21] the IC50 was 10700 nM.

System: not given
Experiment: not given
Set-up: method as in vendor (SPECS)
Details: reported by the vendor ref vendor (SPECS); cited from earlier work
For `COc1cc(C(=O)N2CCN(CCN3C(=O)c4cccc5cccc(c45)C3=O)CC2)cc(OC)c1OC` [Compound 2], the logP is listed as 1.69. In the case of `O=C(COC(=O)c1ccc(N2C(=O)C3C4c5ccccc5C(c5ccccc54)C3C2=O)cc1)c1cccc([N+](=O)[O-])c1` (stereo not shown) [Compound 17], the logP is given as 2.93.

System: not listed separately
Experiment: Solubility observed in experimental testing
Details: not given
In the case of `COc1cc(C(=O)N2CCN(CCN3C(=O)c4cccc5cccc(c45)C3=O)CC2)cc(OC)c1OC` [Compound 2], the solubility is reported as “non-soluble”. For `O=C(COC(=O)c1ccc(N2C(=O)C3C4c5ccccc5C(c5ccccc54)C3C2=O)cc1)c1cccc([N+](=O)[O-])c1` (stereo not shown) [Compound 17], the solubility was “non-soluble”.
